Results as given in ChEMBL document CHEMBL1201862, “PubChem BioAssay data set” (2004).
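1) Cells in 96-well plates. 2) Compound, 48 h, 5 concentrations. 3) Linear interpolation between surrounding doses. 4) Unreached endpoint = highest concentration. GI50 = concentration required for 50% inhibition of growth.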 Activity calls are given as the source filed them. No stated cut-off is given here; in the data, active = GI50 up to about 1.1 µM and inactive = higher.

What was measured:
Assay in all cases: NCI tumour cell line growth inhibition, 48 h
M19-MEL = system: M19-MEL
CAKI-1 = system: CAKI-1
M14 = system: M14
SK-MEL-5 = system: SK-MEL-5
SN12C = system: SN12C
IGROV-1 = system: IGROV-1
NCI-H522 = system: NCI-H522
U-251 = system: U-251
SNB-75 = system: SNB-75
TK-10 = system: TK-10
UACC-62 = system: UACC-62
SK-OV-3 = system: SK-OV-3
DMS-273 = system: DMS-273
Malme-3M = system: Malme-3M
DMS-114 = system: DMS-114
NCI-H23 = system: NCI-H23
HOP-18 = system: HOP-18
XF498 = system: XF498
HCC 2998 = system: HCC 2998
RPMI-8226 = system: RPMI-8226
SW-620 = system: SW-620
SNB-78 = system: SNB-78
A549 = system: A549
SNB-19 = system: SNB-19
COLO 205 = system: COLO 205
HCT-15 = system: HCT-15
OVCAR-5 = system: OVCAR-5
SF-268 = system: SF-268
LOX IMVI = system: LOX IMVI
CCRF-CEM = system: CCRF-CEM
SF-539 = system: SF-539
HOP-62 = system: HOP-62
OVCAR-3 = system: OVCAR-3
NCI-H226 = system: NCI-H226
HT-29 = system: HT-29
KM12 = system: KM12
OVCAR-8 = system: OVCAR-8
HCT-116 = system: HCT-116
LXFL 529 = system: LXFL 529
ACHN = system: ACHN
HL-60 = system: HL-60
SK-MEL-2 = system: SK-MEL-2
A498 = system: A498
EKVX = system: EKVX
HOP-92 = system: HOP-92
KM-20L2 = system: KM-20L2
UO-31 = system: UO-31
SK-MEL-28 = system: SK-MEL-28
K562 = system: K562
UACC-257 = system: UACC-257
OVCAR-4 = system: OVCAR-4
NCI-H460 = system: NCI-H460
RXF 393 = system: RXF 393
DLD-1 = system: DLD-1
786-0 = system: 786-0
SR = system: SR
SF-295 = system: SF-295
MOLT-4 = system: MOLT-4

Compound: Cn1c(=O)c(C(=O)NC(=O)NCCCCCOC(=O)CCCCCCCCCCC(=O)OCCCCCNC(=O)NC(=O)c2cn(Cc3ccccc3)c(=O)n(C)c2=O)cn(Cc2ccccc2)c1=O
- GI50 (M19-MEL): > 100 µM (inactive)
- GI50 (CAKI-1): > 100 µM (inactive)
- GI50 (M14): > 100 µM (inactive)
- GI50 (SK-MEL-5): > 100 µM (inactive)
- GI50 (SN12C): > 100 µM (inactive)
- GI50 (IGROV-1): > 100 µM (inactive)
- GI50 (NCI-H522): > 100 µM (inactive)
- GI50 (U-251): > 100 µM (inactive)
- GI50 (SNB-75): > 100 µM (inactive)
- GI50 (TK-10): > 100 µM (inactive)
- GI50 (UACC-62): > 100 µM (inactive)
- GI50 (SK-OV-3): > 100 µM (inactive)
- GI50 (DMS-273): > 100 µM (inactive)
- GI50 (Malme-3M): > 100 µM (inactive)
- GI50 (DMS-114): > 100 µM (inactive)
- GI50 (NCI-H23): > 100 µM (inactive)
- GI50 (HOP-18): > 100 µM (inactive)
- GI50 (XF498): > 100 µM (inactive)
- GI50 (HCC 2998): > 100 µM (inactive)
- GI50 (RPMI-8226): > 100 µM (inactive)
- GI50 (SW-620): > 100 µM (inactive)
- GI50 (SNB-78): > 100 µM (inactive)
- GI50 (A549): > 100 µM (inactive)
- GI50 (SNB-19): > 100 µM (inactive)
- GI50 (COLO 205): > 100 µM (inactive)
- GI50 (HCT-15): > 100 µM
- GI50 (OVCAR-5): > 100 µM (inactive)
- GI50 (SF-268): > 100 µM (inactive)
- GI50 (LOX IMVI): > 100 µM (inactive)
- GI50 (CCRF-CEM): > 100 µM (inactive)
- GI50 (SF-539): > 100 µM (inactive)
- GI50 (HOP-62): > 100 µM (inactive)
- GI50 (OVCAR-3): > 100 µM (inactive)
- GI50 (NCI-H226): > 100 µM (inactive)
- GI50 (HT-29): > 100 µM (inactive)
- GI50 (KM12): > 100 µM (inactive)
- GI50 (OVCAR-8): > 100 µM (inactive)
- GI50 (HCT-116): > 100 µM (inactive)
- GI50 (LXFL 529): > 100 µM (inactive)
- GI50 (ACHN): > 100 µM (inactive)
- GI50 (HL-60): > 100 µM (inactive)
- GI50 (SK-MEL-2): > 100 µM (inactive)
- GI50 (A498): > 100 µM (inactive)
- GI50 (EKVX): > 100 µM (inactive)
- GI50 (HOP-92): 71.4 µM (inactive)
- GI50 (KM-20L2): > 100 µM (inactive)
- GI50 (UO-31): > 100 µM (inactive)
- GI50 (SK-MEL-28): > 100 µM (inactive)
- GI50 (K562): > 100 µM (inactive)
- GI50 (UACC-257): > 100 µM (inactive)
- GI50 (OVCAR-4): > 100 µM (inactive)
- GI50 (NCI-H460): > 100 µM (inactive)
- GI50 (RXF 393): > 100 µM (inactive)
- GI50 (DLD-1): > 100 µM (inactive)
- GI50 (786-0): > 100 µM (inactive)

Compound: O=C(Nc1nc2ccccc2n1Cc1ccccc1)NC12CC3CC(CC(C3)C1)C2
- GI50 (M19-MEL): 61.4 µM (inactive)
- GI50 (CAKI-1): 88.9 µM (inactive)
- GI50 (M14): 92.5 µM (inactive)
- GI50 (SK-MEL-5): 54.6 µM (inactive)
- GI50 (SN12C): 82.8 µM (inactive)
- GI50 (IGROV-1): 75.3 µM (inactive)
- GI50 (NCI-H522): 44.7 µM (inactive)
- GI50 (U-251): 39 µM (inactive)
- GI50 (SNB-75): 22.4 µM (inactive)
- GI50 (TK-10): 65.5 µM (inactive)
- GI50 (UACC-62): 41.9 µM (inactive)
- GI50 (SK-OV-3): 27.9 µM (inactive)
- GI50 (DMS-273): 16.9 µM (inactive)
- GI50 (Malme-3M): 39.6 µM (inactive)
- GI50 (DMS-114): 57.3 µM (inactive)
- GI50 (NCI-H23): 42.9 µM (inactive)
- GI50 (HOP-18): 44.8 µM (inactive)
- GI50 (XF498): 17.8 µM (inactive)
- GI50 (HCC 2998): > 100 µM (inactive)
- GI50 (RPMI-8226): > 100 µM (inactive)
- GI50 (SW-620): > 100 µM (inactive)
- GI50 (SNB-78): 19.8 µM (inactive)
- GI50 (A549): 71.9 µM (inactive)
- GI50 (SNB-19): 44.1 µM (inactive)
- GI50 (COLO 205): 48.5 µM (inactive)
- GI50 (HCT-15): > 100 µM
- GI50 (OVCAR-5): > 100 µM (inactive)
- GI50 (SF-268): 14.4 µM (inactive)
- GI50 (LOX IMVI): 40.3 µM (inactive)
- GI50 (CCRF-CEM): > 100 µM (inactive)
- GI50 (SF-539): 36 µM (inactive)
- GI50 (SR): 80.2 µM (inactive)
- GI50 (HOP-62): 32.6 µM (inactive)
- GI50 (OVCAR-3): 38.5 µM (inactive)
- GI50 (NCI-H226): 51.6 µM (inactive)
- GI50 (HT-29): > 100 µM (inactive)
- GI50 (KM12): > 100 µM (inactive)
- GI50 (OVCAR-8): > 100 µM (inactive)
- GI50 (HCT-116): 30.4 µM (inactive)
- GI50 (LXFL 529): 67.8 µM (inactive)
- GI50 (ACHN): 44.7 µM (inactive)
- GI50 (SF-295): 13.4 µM (inactive)
- GI50 (HL-60): > 100 µM (inactive)
- GI50 (SK-MEL-2): > 100 µM (inactive)
- GI50 (MOLT-4): > 100 µM (inactive)
- GI50 (EKVX): > 100 µM (inactive)
- GI50 (HOP-92): 23 µM (inactive)
- GI50 (KM-20L2): > 100 µM (inactive)
- GI50 (UO-31): > 100 µM (inactive)
- GI50 (SK-MEL-28): 79.3 µM (inactive)
- GI50 (K562): > 100 µM (inactive)
- GI50 (UACC-257): > 100 µM (inactive)
- GI50 (OVCAR-4): 20.7 µM (inactive)
- GI50 (NCI-H460): 41 µM (inactive)
- GI50 (RXF 393): 19.5 µM (inactive)
- GI50 (DLD-1): 87.9 µM (inactive)
- GI50 (786-0): 24 µM (inactive)
